Source: BigSolDB 2.1

CC(C)C[C@H](CN)CC(=O)O
solubility (mole fraction)
Conditions	in acetonitrile	in ethanol	in ethyl acetate	in isobutanol	in isopropanol	in methanol	in n-butanol	in n-propanol
278.15 K	0.000572	0.00115	0.00164	0.00126	9.1e-05	0.00112	0.00093	0.00109
283.15 K	0.000624	0.00149	0.00195	0.00136	0.000125	0.00153	0.00152	0.00144
288.15 K	0.000695	0.00188	0.00237	0.00146	0.000163	0.00198	0.00213	0.00185
293.15 K	0.00076	0.00235	0.00271	0.00159	0.000214	0.00242	0.00282	0.00241
298.15 K	0.000821	0.00272	0.00331	0.00173	0.000253	0.00273	0.00354	0.00277
303.15 K	0.000885	0.00321	0.00374	0.00184	0.000281	0.0033	0.00416	0.0032
308.15 K	0.000931	0.00369	0.00429	0.00194	0.000314	0.00399	0.00487	0.00368
313.15 K	0.000988	0.00424	0.00488	0.002	0.000362	0.00465	0.00551	0.00412
318.15 K	0.00106	0.00501	0.00547	0.00209	0.000419	0.00542	0.00619	0.00466
323.15 K	0.00113	0.00575	0.00589	0.00219	0.000461	0.00602	0.00677	0.00501
328.15 K	0.00118	0.00634	0.00631	0.00226	0.000513	0.00671	0.00731	0.00542
333.15 K	0.00123	0.00711	0.00674	0.00234	0.000585	0.00753	0.00793	0.00603
